Test results as given in ChEMBL document CHEMBL1759834, “Synthesis, stereochemistry, antimicrobial evaluation and QSAR studies of 2,6-diaryltetrahydropyran-4-one thiosemicarbazones” (2011).
≈ marks a conversion by molar mass, not a printed value.

Columns and labels:
Staphylococcus aureus = assay: Antibacterial activity against Staphylococcus aureus ATCC 25825 after 24 hrs by twofold serial dilution method; type: functional; conditions: for MIC: Staphylococcus aureus, ATCC 25825, 24 h
Escherichia coli = assay: Antibacterial activity against Escherichia coli ATCC 25835 after 24 hrs by twofold serial dilution method; type: functional; conditions: for MIC: Escherichia coli, ATCC 25835, 24 h
Pseudomonas aeruginosa = assay: Antibacterial activity against Pseudomonas aeruginosa ATCC 10145 after 24 hrs by twofold serial dilution method; type: functional; conditions: for MIC: Pseudomonas aeruginosa, ATCC 10145, 24 h
Salmonella typhi = assay: Antibacterial activity against Salmonella typhi ATCC 24915 after 24 hrs by twofold serial dilution method; type: functional, Salmonella enterica subsp. enterica serovar Typhi; conditions: for MIC: Salmonella enterica, ATCC 24915, 24 h
Bacillus subtilis = assay: Antibacterial activity against Bacillus subtilis ATCC 451 after 24 hrs by twofold serial dilution method; type: functional; conditions: for MIC: Bacillus subtilis, ATCC 451, 24 h
Klebsiella pneumoniae = assay: Antibacterial activity against Klebsiella pneumoniae ATCC 15490 after 24 hrs by twofold serial dilution method; type: functional; conditions: for MIC: Klebsiella pneumoniae, ATCC 15490, 24 h
Cryptococcus neoformans = assay: Antifungal activity against Cryptococcus neoformans after 72 to 96 hrs by twofold serial dilution method; type: functional; conditions: for MIC: Cryptococcus neoformans
Candida albicans = assay: Antifungal activity against Candida albicans after 24 hrs by twofold serial dilution method; type: functional; conditions: for MIC: Candida albicans, 24 h
Aspergillus niger = assay: Antifungal activity against Aspergillus niger after 72 to 96 hrs by twofold serial dilution method; type: functional; conditions: for MIC: Aspergillus niger

Compound | -logMIC (Staphylococcus aureus) | MIC (Staphylococcus aureus) [µg/mL] | -logMIC (Escherichia coli) | MIC (Escherichia coli) [µg/mL] | -logMIC (Pseudomonas aeruginosa) | MIC (Pseudomonas aeruginosa) [µg/mL] | -logMIC (Salmonella typhi) | MIC (Salmonella typhi) [µg/mL] | -logMIC (Bacillus subtilis) | MIC (Bacillus subtilis) [µg/mL] | -logMIC (Klebsiella pneumoniae) | MIC (Klebsiella pneumoniae) [µg/mL] | -logMIC (Cryptococcus neoformans) | MIC (Cryptococcus neoformans) [µg/mL] | -logMIC (Candida albicans) | MIC (Candida albicans) [µg/mL] | -logMIC (Aspergillus niger) | MIC (Aspergillus niger) [µg/mL]
C[C@@H]1/C(=N/NC(=S)Nc2ccccc2)C[C@@H](c2ccccc2)O[C@H]1c1ccccc1 | 4.301 | 50 (≈ 120 µM) | 4.301 | 50 (≈ 120 µM) | 4.301 | 50 (≈ 120 µM) | 4 | 100 (≈ 241 µM) | 4.301 | 50 (≈ 120 µM) | 4 | 100 (≈ 241 µM) | 4.903 | 12.5 (≈ 30.1 µM) | 4 | 100 (≈ 241 µM) | 4 | 100 (≈ 241 µM)
C[C@@H]1/C(=N\NC(N)=S)[C@@H](C)[C@H](c2ccc(F)cc2)O[C@@H]1c1ccc(F)cc1 | 4.301 | 50 (≈ 128 µM) | 4.301 | 50 (≈ 128 µM) | 4 | 100 (≈ 257 µM) | – | 25 (≈ 64.2 µM) | 4.602 | 25 (≈ 64.2 µM) | 4.301 | 50 (≈ 128 µM) | 4.602 | 25 (≈ 64.2 µM) | 4 | 100 (≈ 257 µM) | 4 | 100 (≈ 257 µM)
C[C@@H]1/C(=N\NC(=S)Nc2ccccc2)[C@@H](C)[C@H](c2cccc(Cl)c2)O[C@@H]1c1cccc(Cl)c1 | 4.301 | 50 (≈ 100 µM) | 4 | 100 (≈ 201 µM) | 4.602 | 25 (≈ 50.2 µM) | – | 12.5 (≈ 25.1 µM) | 4.602 | 25 (≈ 50.2 µM) | 4.903 | 12.5 (≈ 25.1 µM) | 4.602 | 25 (≈ 50.2 µM) | 4.602 | 25 (≈ 50.2 µM) | 4 | 100 (≈ 201 µM)
C[C@@H]1/C(=N/NC(N)=S)C[C@@H](c2ccccc2)O[C@H]1c1ccccc1 | 4 | 100 (≈ 295 µM) | – | – | 3.698 | 200 (≈ 589 µM) | – | 50 (≈ 147 µM) | – | – | 4 | 100 (≈ 295 µM) | 4.301 | 50 (≈ 147 µM) | 3.698 | 200 (≈ 589 µM) | – | –
Cc1ccc([C@H]2O[C@@H](c3ccc(C)cc3)[C@H](C)/C(=N/NC(N)=S)[C@H]2C)cc1 | 4.301 | 50 (≈ 131 µM) | 4.602 | 25 (≈ 65.5 µM) | 4 | 100 (≈ 262 µM) | – | 50 (≈ 131 µM) | 4.301 | 50 (≈ 131 µM) | 4 | 100 (≈ 262 µM) | 4 | 100 (≈ 262 µM) | 4 | 100 (≈ 262 µM) | 4.301 | 50 (≈ 131 µM)
Cc1ccc([C@H]2O[C@@H](c3ccc(C)cc3)[C@H](C)/C(=N/NC(=S)Nc3ccccc3)[C@H]2C)cc1 | 4 | 100 (≈ 219 µM) | 4.301 | 50 (≈ 109 µM) | 4 | 100 (≈ 219 µM) | – | 50 (≈ 109 µM) | 4.301 | 50 (≈ 109 µM) | – | – | 4.301 | 50 (≈ 109 µM) | 5.204 | 6.25 (≈ 13.7 µM) | 4.602 | 25 (≈ 54.6 µM)
C[C@@H]1/C(=N\NC(=S)Nc2ccccc2)[C@@H](C)[C@H](c2ccccc2Cl)O[C@@H]1c1ccccc1Cl | 4.301 | 50 (≈ 100 µM) | 4.602 | 25 (≈ 50.2 µM) | 4.301 | 50 (≈ 100 µM) | – | 25 (≈ 50.2 µM) | 4.301 | 50 (≈ 100 µM) | 4.903 | 12.5 (≈ 25.1 µM) | 4.602 | 25 (≈ 50.2 µM) | 4.301 | 50 (≈ 100 µM) | 3.698 | 200 (≈ 401 µM)
COc1ccc([C@H]2O[C@@H](c3ccc(OC)cc3)[C@H](C)/C(=N/NC(=S)Nc3ccccc3)[C@H]2C)cc1 | 4.903 | 12.5 (≈ 25.5 µM) | 4.602 | 25 (≈ 51.1 µM) | 4.602 | 25 (≈ 51.1 µM) | 4 | 100 (≈ 204 µM) | 4.903 | 12.5 (≈ 25.5 µM) | 4.602 | 25 (≈ 51.1 µM) | 3.698 | 200 (≈ 408 µM) | 5.204 | 6.25 (≈ 12.8 µM) | 4.602 | 25 (≈ 51.1 µM)
C[C@@H]1/C(=N\NC(=S)Nc2ccccc2)[C@@H](C)[C@H](c2ccc(F)cc2)O[C@@H]1c1ccc(F)cc1 | 4.301 | 50 (≈ 107 µM) | 4 | 100 (≈ 215 µM) | 4.903 | 12.5 (≈ 26.8 µM) | 4.602 | 25 (≈ 53.7 µM) | 4.301 | 50 (≈ 107 µM) | 4.301 | 50 (≈ 107 µM) | 5.204 | 6.25 (≈ 13.4 µM) | 4 | 100 (≈ 215 µM) | 4 | 100 (≈ 215 µM)
C[C@@H]1/C(=N\NC(=S)Nc2ccccc2)[C@@H](C)[C@H](c2ccc(Cl)cc2)O[C@@H]1c1ccc(Cl)cc1 | 4.602 | 25 (≈ 50.2 µM) | 4 | 100 (≈ 201 µM) | 5.204 | 6.25 (≈ 12.5 µM) | – | 25 (≈ 50.2 µM) | 4.602 | 25 (≈ 50.2 µM) | 4.903 | 12.5 (≈ 25.1 µM) | 5.204 | 6.25 (≈ 12.5 µM) | 4.903 | 12.5 (≈ 25.1 µM) | 4.301 | 50 (≈ 100 µM)
CC[C@@H]1/C(=N/NC(=S)Nc2ccccc2)C[C@@H](c2ccccc2)O[C@H]1c1ccccc1 | 4.301 | 50 (≈ 116 µM) | 4 | 100 (≈ 233 µM) | 4.602 | 25 (≈ 58.2 µM) | – | 50 (≈ 116 µM) | 4 | 100 (≈ 233 µM) | 4 | 100 (≈ 233 µM) | 4.903 | 12.5 (≈ 29.1 µM) | 4 | 100 (≈ 233 µM) | 4.301 | 50 (≈ 116 µM)
C[C@@H]1/C(=N\NC(=S)Nc2ccccc2)[C@@H](C)[C@H](c2ccc(Br)cc2)O[C@@H]1c1ccc(Br)cc1 | 4.602 | 25 (≈ 42.6 µM) | 4 | 100 (≈ 170 µM) | 5.204 | 6.25 (≈ 10.6 µM) | – | 12.5 (≈ 21.3 µM) | 4.602 | 25 (≈ 42.6 µM) | 4.602 | 25 (≈ 42.6 µM) | 4.903 | 12.5 (≈ 21.3 µM) | 5.204 | 6.25 (≈ 10.6 µM) | 4.602 | 25 (≈ 42.6 µM)
COc1cccc([C@H]2O[C@@H](c3cccc(OC)c3)[C@H](C)/C(=N/NC(=S)Nc3ccccc3)[C@H]2C)c1 | 4.903 | 12.5 (≈ 25.5 µM) | 4.301 | 50 (≈ 102 µM) | 3.698 | 200 (≈ 408 µM) | – | 50 (≈ 102 µM) | 4.903 | 12.5 (≈ 25.5 µM) | 4 | 100 (≈ 204 µM) | 4 | 100 (≈ 204 µM) | 4.602 | 25 (≈ 51.1 µM) | 4 | 100 (≈ 204 µM)
CC[C@@H]1/C(=N/NC(N)=S)C[C@@H](c2ccccc2)O[C@H]1c1ccccc1 | 4.301 | 50 (≈ 141 µM) | 4.602 | 25 (≈ 70.7 µM) | 4 | 100 (≈ 283 µM) | – | 50 (≈ 141 µM) | 4.301 | 50 (≈ 141 µM) | 4 | 100 (≈ 283 µM) | 4.301 | 50 (≈ 141 µM) | 3.698 | 200 (≈ 566 µM) | 3.698 | 200 (≈ 566 µM)
C[C@@H]1[C@H](O)[C@@H](C)/C=C/C=C/C=C/C=C/C=C/C=C/C=C/[C@H](O[C@@H]2O[C@H](C)[C@@H](O)[C@H](N)[C@@H]2O)C[C@@H]2O[C@](O)(C[C@@H](O)C[C@@H](O)[C@H](O)CC[C@@H](O)C[C@@H](O)CC(=O)O[C@H]1C)C[C@H](O)[C@H]2C(=O)O [AMPHOTERICIN B] | – | – | – | – | – | – | – | – | – | – | – | – | 4.602 | 25 (≈ 27.1 µM) | – | 25 (≈ 27.1 µM) | 4.301 | 50 (≈ 54.1 µM)
C[C@@H]1/C(=N\NC(N)=S)[C@@H](C)[C@H](c2ccc(Cl)cc2)O[C@@H]1c1ccc(Cl)cc1 | 4.602 | 25 (≈ 59.2 µM) | 4.301 | 50 (≈ 118 µM) | 4.301 | 50 (≈ 118 µM) | – | 25 (≈ 59.2 µM) | 4.602 | 25 (≈ 59.2 µM) | 4.602 | 25 (≈ 59.2 µM) | 4.602 | 25 (≈ 59.2 µM) | 4.602 | 25 (≈ 59.2 µM) | 4 | 100 (≈ 237 µM)
COc1ccc([C@H]2O[C@@H](c3ccc(OC)cc3)[C@H](C)/C(=N/NC(N)=S)[C@H]2C)cc1 | 4.903 | 12.5 (≈ 30.2 µM) | 4.602 | 25 (≈ 60.5 µM) | 4.301 | 50 (≈ 121 µM) | – | 50 (≈ 121 µM) | 4.903 | 12.5 (≈ 30.2 µM) | 4.301 | 50 (≈ 121 µM) | 3.698 | 200 (≈ 484 µM) | 4.903 | 12.5 (≈ 30.2 µM) | 4.301 | 50 (≈ 121 µM)
